Consider two compounds from US8679530B2 (Your Energy Systems, LLC, priority 2004, dated 2014).

A short description of experiment [1]: Case report Example 5: blood pressure in diabetic hypertensive. It is filed as in vivo, human. To be noted: lisinopril 20 mg twice a day, over 3 days; before 188/92. On the procedure:
The patient with diabetes requiring insulin therapy also has a long history of elevated blood pressure. The blood pressure was previously controlled using lisinopril 20 mg. daily. […] The dose of lisinopril was lowered to 20 mg once a day.

For experiment [2] the following is noted: intravenous administration; cited from earlier work.

Each structure is given as a SMILES string.

Turning to `NCCCC[C@H](N[C@@H](CCc1ccccc1)C(=O)O)C(=O)N1CCC[C@H]1C(=O)O` [lisinopril], the blood pressure in experiment [1] is listed as 145/92.

As to `N[C@@H](CCC(=O)N[C@@H](CS)C(=O)NCC(=O)O)C(=O)O` [reduced glutathione, gamma-glutamyl-cysteinyl-glycine], the “blood flow in peripheral vascular disease” value in experiment [2] is recorded as “benefit in improving blood flow”.
